Data set [1] concerns biofilm made of Streptococcus sanguis, Actinomyces naeslundii, Porphyromonas gingivalis, and Fusobacterium nucleatum. Description: Removal of mature biofilm grown on hydroxyapatite or titanium disks, live/dead staining. The note with it: hydroxyapatite discs, GLDA alone at different concentrations. The data set is classed as cell-based. As to the method:
Following assay calibration, biofilm made of Streptococcus sanguis, Actinomyces naeslundii, Porphyromonas gingivalis, and Fusobacterium nucleatum was grown on tooth surfaces (hydroxyapatite (HA) disks) or dental implants surfaces (sandblast acid-etched titanium surfaces, SLA).
The mature biofilms were washed in saline (control) or saline with PolyP (at 8% to 0.2% w/v) for 45 min at 37° C. The biofilm that remained on the disks was stained with live/dead fluorescent stains and analyzed using a florescence microscope. Results are shown as representative microscopic images (FIG. 1), and as a quantification of the florescence intensity in relative florescence units (RFU) (FIGS. 2-3).
In this experiment, the ability of the chelating agent GLDA to clear biofilm, either alone or in combination with PolyP at 0.02% and 0.5%, was tested. As described in Example 4, biofilm was grown and treated with the different solutions, and the residual biofilm was stained and quantified. The results are shown as a quantification of the florescence intensity in relative florescence units (RFU) (FIGS. 4-5).

Data set [2] in a line: pH of GLDA-PolyP combinations. The data set is classed as physicochemical. The note with it: No PolyP. The protocol: While acidic or basic environment in solution breakdown biofilm, it may be harmful for the human tissue at the periodontal pockets. In this experiment we thus measured the pH levels of the GLDA/PolyP combination that were tested in Example 5.

As to “Tetrasodium N,N-bis(carboxymethyl)-L-glutamate [GLDA]”, the “residual biofilm (fluorescence intensity)” value in data set [1] is recorded as “dose dependent efficacy”. In addition, the figures for the pH in data set [2] (GLDA 0.05%), in data set [2] (GLDA 0.3%) and in data set [2] (GLDA 1%) were 7, 9.6 and 11.5, respectively.

Source of the values: patent US20250195567A1, “COMPOSITIONS FOR REMOVING MICROBIAL BIOFILM OR INHIBITING FORMATION THEREOF” (Prudentix Ltd., priority 2022, published 2025).
